Data reported in US20260008801A1, “BIO-BASED SURFACTANTS DERIVED FROM CARBOHYDRATES” (COÖPERATIE KONINKLIJKE COSUN U.A., priority 2022, published 2026).
Where two headings read alike, the source gives them in different places.

Columns and labels:
Assay type in all cases: physicochemical
[1] = Foaming abilities, 1% compound solutions shaken by hand; parameters: key to FOAM: −: no foam formation; +: low foam formation; ++: moderate foam formation; +++: strong foam formation
Experimental: Foaming abilities were evaluated at room temperature by shaking 1% compound solutions (2 ml) of pH 3, 7, and 12 by hand for 10 s. The pH of each solution was assessed with a pH meter at room temperature. […] The foam heights at the initial time were compared to one another after which the foaming abilities were classified according to no foam formation (−), low foam formation (+), moderate foam formation (++), and strong foam formation (+++).

[2] = Solubility in water (excess of compound in 4 ml demi water); conditions: for Solubility: Table E5.2, water
Experimental: Solubility is preferably solubility in aqueous solution, more preferably solubility in water, most preferably solubility in demineralised water. A skilled person knows how to assess such solubility.
Solubility in water was determined by preparing mixtures of an excess of compound dispersed in 4 ml demi water using a vortex at maximum speed for 1 min. […] 1 ml of the mixture was concentrated in vacuo to yield a solid. The mass of the solid was determined in mg to calculate the solubility in percentage by dividing by ten.

[3] = Surface tension measurements, Wilhelmy plate (surface tension, CMC)
Experimental: Surface tension measurements were performed with a Biolin Scientific Sigma701 automatic tension meter equipped with a Wilhelmy plate made of platinum (±0.5 mN/m). […] The number of experimental points is related to the compound's/surfactant's solubility and available quantity. All compound/surfactant solutions were allowed to stand 12 h before being measured. The platinum plate was thoroughly cleaned with demi water and flame-dried before each measurement. The CMC of each compound/surfactant was determined at the minimum of a breakpoint of a conventional plot of surface tension versus compound/surfactant concentration. DCMC was obtained by acquiring the surface tension at the CMC. The pC20 value was determined by taking the minus log of the concentration compound/surfactant at a surface tension of 52 mN/m.

[4] = Foaming power and stability, Ultra-Turrax, 0.4% aq. surfactant; conditions: Table E5.2; for Foamability (mL) after (min) 1: foam volume after 1 min; for Foamability (mL) after (min) 5: foam volume after 5 min; for Foamability (mL) after (min) 10: foam volume after 10 min
Experimental: Foaming power was also tested at room temperature with 5 mL of 0.4% aq. surfactant (20 mg) solution in a 50 mL measuring cylinder. After performing the Ultra-Turrax (a registered trademark for a high-performance dispersing instrument) for 20 seconds (8000 rpm), the initial height of the foam was measured for foam height. (volume in mL). Every time step of, 1, 3, 5, 10, 30, 60 minutes was noted. In addition, after 24 hours the stability was checked. Particularly, foaming power and stability of the surfactants were performed using an IKA Ultra-Turrax T25 with an 18 G dispersing element. At room temperature, an aqueous solution of 5 mL 0.4% surfactant in a 50 mL measuring cylinder (2.20 cm diameter) was mixed with the Ultra-Turrax for 20 seconds at 8000 rpm. The foam height (volume in mL) was denoted for 0, 1, 3, 5, 10, 30, 60 min and 24 hours. In addition, after 24 hours the stability was checked.

[5] = Table E2, galactaric acid amides
[6] = Table E2, room temperature, pH 7
[7] = Table E4, room temperature, pH 7
[8] = Table E5, room temperature, pH 7

Compound: 1-(N-(decanoic acid))-L-arabinonamide [Compound 06]
- foaming behaviour / foam creation, in words [1]: does not create foam

Compound: CC(C)CNC(=O)[C@H](O)[C@@H](O)[C@@H](O)CO [Compound 05, 1-(N-isobutyl)-L-arabinonamide]
- FOAM ([1]; Table E1): −
- solubility in water, in words [2]: soluble
- SOLUBILITY (H2O) ([2]; Table E1, arabinonamides): Yes
- stable surface tension value at maximal concentration (micelle formation) ([3]; maximal concentration in water, means no micelles were formed): do not reach a stable surface tension value

Compound: CCCCNC(=O)[C@H](O)[C@@H](O)[C@@H](O)[C@H](O)C(=O)O [Compound 09]
- FOAM ([1]; Table E2): −
- solubility in H2O [2]: 6%
- SOLUBILITY (H2O) [2, 5]: >6%
- SURFACE TENSION [3, 6]: 50.78 mN/m

Compound: CCCCCCNC(=O)[C@H](O)[C@@H](O)[C@@H](O)[C@H](O)C(=O)O [Compound 10]
- FOAM ([1]; Table E2): −
- solubility in H2O [2]: 2.5%
- SOLUBILITY (H2O) [2, 5]: ~2.5%
- SURFACE TENSION [3, 6]: 49.43 mN/m

Compound: CCCCCCCCNC(=O)[C@H](O)[C@@H](O)[C@@H](O)[C@H](O)C(=O)O [Compound 11]
- foam stability compared with SLES [1]: quite similar
- foaming behaviour / foam creation, in words [1]: Foam appears
- FOAM ([1]; Table E2): ++
- solubility in H2O [2]: 2%
- SOLUBILITY (H2O) [2, 5]: ~2.0%
- SURFACE TENSION [3]: 26 mN/m
- concentration at which the surface tension is reached [3]: 0.29%
- CMC (%) ([3]; Table E2): 0.17%
- SURFACE TENSION [3, 6]: 26.0 mN/m

Compound: CCCCCCCCCCNC(=O)[C@H](O)[C@@H](O)[C@@H](O)[C@H](O)C(=O)O [Compound 12]
- FOAM ([1]; Table E2): ++
- solubility in water, in words [2]: relatively low
- SOLUBILITY (H2O) [2, 5]: <1%

Compound: CCCCCCCCCCCCNC(=O)[C@H](O)[C@@H](O)[C@@H](O)[C@H](O)C(=O)O [Compound 13]
- FOAM ([1]; Table E2): −
- solubility in water, in words [2]: relatively low

Compound: CCCCCCN(C)C[C@H](O)[C@@H](O)[C@@H](O)CO [Compound 23, N-methyl-N-hexyl-L-arabinamine]
- FOAM ([1]; Table E4, pH > 7): +
- solubility in H2O [2]: 30%
- SOLUBILITY (H2O) ([2]; Table E4): 30%
- Solubility [2]: 30%
- CMC (%) ([3]; Table E4): 2%
- SURFACE TENSION [3, 7]: 31.4 mN/m
- CMC (%) ([3]; Table E5.2): 2%
- Surface tension (nM/m) ([3]; Table E5.2): 31.4 mN/m
- Foamability (mL) after (min) 1 [4]: 2 mL
- Foamability (mL) after (min) 5 [4]: 0.2 mL
- Foamability (mL) after (min) 10 [4]: 0 mL

Compound: CCCCCCCCN(C)C[C@H](O)[C@@H](O)[C@@H](O)CO [Compound 24, N-methyl-N-octyl-L-arabinamine]
- FOAM ([1]; Table E4, pH > 7): +
- SOLUBILITY (H2O) ([2]; Table E4): 0.9%
- Solubility [2]: 0.9%
- solubility, earlier measurements ([2]; earlier measurements, initially found): 0.25%
- CMC (%) ([3]; Table E4): 0.25%
- SURFACE TENSION [3, 7]: 28.7 mN/m
- CMC (%) ([3]; Table E5.2): 0.25%
- Surface tension (nM/m) ([3]; Table E5.2): 28.7 mN/m
- Foamability (mL) after (min) 1 [4]: 5 mL
- Foamability (mL) after (min) 5 [4]: 4.5 mL
- Foamability (mL) after (min) 10 [4]: 4 mL

Compound: CCCCCCCCCCN(C)C[C@@H](O)[C@@H](O)[C@H](O)CO [Compound 24b, N-methyl-N-decyl-L-arabinamine]
- Solubility [2]: 0.1%
- CMC (%) ([3]; Table E5.2): 0.2%
- Surface tension (nM/m) ([3]; Table E5.2): 33.7 mN/m
- Foamability (mL) after (min) 1 [4]: 3 mL
- Foamability (mL) after (min) 5 [4]: 3 mL
- Foamability (mL) after (min) 10 [4]: 2 mL

Compound: CCCCCCCCCCCCN(C)C[C@H](O)[C@@H](O)[C@@H](O)CO [Compound 25, N-methyl-N-dodecyl-L-arabinamine]
- FOAM ([1]; Table E4, pH > 7): ++
- SOLUBILITY (H2O) ([2]; Table E4): 0.06%
- Solubility [2]: 0.06%
- CMC (%) ([3]; Table E4): 0.1%
- SURFACE TENSION [3, 7]: 26.2 mN/m
- CMC (%) ([3]; Table E5.2): 0.1%
- Surface tension (nM/m) ([3]; Table E5.2): 26.2 mN/m
- Foamability (mL) after (min) 1 [4]: 5 mL
- Foamability (mL) after (min) 5 [4]: 5 mL
- Foamability (mL) after (min) 10 [4]: 4 mL

Compound: CCCCCCCCCCN(C)C[C@H](O)[C@@H](O)[C@@H](O)[C@H](O)C(=O)O [Compound 25b, N-methyldecyl-D-galactaric acid amine]
- Solubility [2]: 2%
- CMC (%) ([3]; Table E5.2): 0.06%
- Surface tension (nM/m) ([3]; Table E5.2): 32.85 mN/m
- Foamability (mL) after (min) 1 [4]: 6 mL
- Foamability (mL) after (min) 5 [4]: 6 mL
- Foamability (mL) after (min) 10 [4]: 5 mL

Compound: CCCCNC[C@H](O)[C@@H](O)[C@@H](O)CO [Compound 26, N-butyl-L-arabinamine, reference compound]
- FOAM ([1]; Table E4, pH not given): −
- SOLUBILITY (H2O) ([2]; Table E4): 6.67%
- CMC (%) ([3]; Table E4): 2%
- SURFACE TENSION [3, 7]: 45.8 mN/m

Compound: CCCCCCNC[C@H](O)[C@@H](O)[C@@H](O)CO [Compound 27, N-hexyl-L-arabinamine, reference compound]
- FOAM ([1]; Table E4, pH not given): −
- SOLUBILITY (H2O) ([2]; Table E4): 0.75%
- Solubility [2]: 0.75%
- CMC (%) ([3]; Table E4): 0.5%
- SURFACE TENSION [3, 7]: 30.3 mN/m

Compound: CCCCCCCCNC[C@H](O)[C@@H](O)[C@@H](O)CO [Compound 28, N-octyl-L-arabinamine, reference compound]
- FOAM ([1]; Table E4, pH not given): −

Compound: O=C(O)CCCCCCCCCCNC[C@H](O)[C@@H](O)[C@@H](O)CO [Compound 29]
- FOAM ([1]; Table E4, pH not given): −
- SOLUBILITY (H2O) ([2]; Table E4): 1%
- CMC (%) ([3]; Table E4): 1%
- SURFACE TENSION [3, 7]: 56.1 mN/m

Compound: CCCCCCN(C)C[C@H](O)[C@@H](O)[C@@H](O)[C@H](O)C(=O)O [Compound 30, N-methyl-N-hexyl-D-galacturonic acid amine]
- FOAM ([1]; Table E5, PH > 7): ++
- SOLUBILITY (H2O) ([2]; Table E5): 40%
- Solubility [2]: 40%
- CMC (%) ([3]; Table E5): 2%
- SURFACE TENSION [3, 8]: 60.6 mN/m
- Surface tension (nM/m) ([3]; Table E5.2): 42.1 mN/m
- Foamability (mL) after (min) 1 [4]: 0.2 mL
- Foamability (mL) after (min) 5 [4]: 0 mL
- Foamability (mL) after (min) 10 [4]: 0 mL

Compound: CCCCCCCCNC[C@H](O)[C@@H](O)[C@@H](O)[C@H](O)C(=O)O [Compound 33, N-octyl-D-galacturonic acid amine, reference compound]
- FOAM ([1]; Table E5, pH not given): −
- solubility in H2O [2]: 1%
- SOLUBILITY (H2O) ([2]; Table E5): 1%
- Solubility [2]: 1%
- CMC (%) ([3]; Table E5): 1%
- SURFACE TENSION [3, 8]: 45.1 mN/m

Compound: CCCCCCCCCCNC[C@H](O)[C@@H](O)[C@@H](O)[C@H](O)C(=O)O [Compound 33b, N-decyl-D-galacturonic acid amine]
- Solubility [2]: 0.55%

Compound: CCCCCCCCCCCCNC[C@H](O)[C@@H](O)[C@@H](O)[C@H](O)C(=O)O [Compound 34, N-dodecyl-D-galacturonic acid amine, reference compound]
- FOAM ([1]; Table E5, pH not given): −
- SOLUBILITY (H2O) ([2]; Table E5): 0.3%
- Solubility [2]: 0.3%
- CMC (%) ([3]; Table E5): 0.1%
- SURFACE TENSION [3, 8]: 30.7 mN/m

Compound: CCCCCCCC(C)NC[C@H](O)[C@@H](O)[C@@H](O)[C@H](O)C(=O)O (stereo partly drawn) [Compound 35, N-(1-methyloctyl)-D-galacturonic acid amine]
- FOAM ([1]; Table E5, pH not given): −
- SOLUBILITY (H2O) ([2]; Table E5): 0.9%

Compound: CCCCCCCCCCCCN(C)C[C@H](O)[C@@H](O)[C@H](O)[C@H](O)CO [Compound 50, 1-(N-methyl-N-dodecyl)-D-glucosamine]
- solubility in H2O [2]: 0%

Compound: CCCCCCCCCCCCOS(=O)(=O)[O-].[Na+] [SLS, reference compound]
- concentration at which the surface tension is reached [3]: 0.02%
